The values below are quoted from earlier work in PubChem BioAssay AID1259409 (Chemical Carcinogenesis Research Information System (CCRIS), 2018).

The subject of this data set is rodent chemically induced tumor inhibition, incidence and multiplicity. Briefly: CCRIS tumor inhibitor studies.

Take `NCCS`: the “tumour outcome (control, treated, inhibition, significance)” value by setting is: (Carcinogen: N-METHYL-N'-NITRO-N-NITROSOGUANIDINE, 70-25-7, Dose [Inhibitor]: 0, 25 MG/KG IN 0.9% SALINE PLUS 2 MG/KG PROPANOLOL IN OLIVE OIL 1/2 D BEGINNING 1 WK POST LAST CARCINOGEN DOSE AND CONTI, Route [Inhibitor]: SUBCUTANEOUS, Species: RAT, Strain/Sex: WISTAR/MALE, Target Tissue: Type of Lesion: STOMACH: ADENOCARCINOMA, Dose [Carcinogen]: 100 UG/ML IN DRINKING WATER FOR 25 WK, Promoter: NONE USED) 16/20 (80%), 2/22 (9%), 89%, p<0.001; (Carcinogen: N-METHYL-N'-NITRO-N-NITROSOGUANIDINE, 70-25-7, Dose [Inhibitor]: 0, 25 MG/KG IN 0.9% SALINE PLUS 50 MG/KG CIMETIDINE IN OLIVE OIL 1/2 D BEGINNING 1 WK POST LAST CARCINOGEN DOSE AND CONT, Route [Inhibitor]: SUBCUTANEOUS, Species: RAT, Strain/Sex: WISTAR/MALE, Target Tissue: Type of Lesion: STOMACH: ADENOCARCINOMA, Dose [Carcinogen]: 100 UG/ML IN DRINKING WATER FOR 25 WK, Promoter: NONE USED) 16/20 (80%), 12/21 (57%), 29%, not significant; (Carcinogen: N-METHYL-N'-NITRO-N-NITROSOGUANIDINE, 70-25-7, Dose [Inhibitor]: 0, 25 MG/KG IN 1 ML/KG OLIVE OIL 1/2 D FOR STUDY DURATION BEGINNING POST CARCINOGEN TREATMENT (STUDY DURATION: 52 WK), Route [Inhibitor]: SUBCUTANEOUS, Species: RAT, Strain/Sex: WISTAR/MALE, Target Tissue: Type of Lesion: GLANDULAR STOMACH: ADENOCARCINOMA, Dose [Carcinogen]: 50 UG/ML DRINKING WATER FOR 25 WK) 13/18 (72%), 6/20 (30%), 58%, p<0.05; (Carcinogen: N-METHYL-N'-NITRO-N-NITROSOGUANIDINE, 70-25-7, Dose [Inhibitor]: 0, 50 MG/KG IN 0.9% SALINE 1/2 D BEGINNING POST CARCINOGEN DOSE AND CONTINUING FOR DURATION OF STUDY (STUDY DURATION: 52, Route [Inhibitor]: SUBCUTANEOUS, Species: RAT, Strain/Sex: WISTAR/MALE, Target Tissue: Type of Lesion: STOMACH: ADENOCARCINOMA, Dose [Carcinogen]: 50 UG/ML DRINKING WATER FOR 25 WK, Promoter: NONE USED) 12/19 (63%), 5/20 (25%), 58%, p<0.05; (Carcinogen: N-METHYL-N'-NITRO-N-NITROSOGUANIDINE, 70-25-7, Dose [Inhibitor]: 0, 280 MG/KG 1/2 D FOR STUDY DURATION (STUDY DURATION: 52 WK), Route [Inhibitor]: SUBCUTANEOUS, Species: RAT, Strain/Sex: WISTAR/MALE, Target Tissue: Type of Lesion: STOMACH: ADENOCARCINOMA, Dose [Carcinogen]: 50 UG/ML DRINKING WATER FOR 25 WK, Promoter: NONE USED) 75%, 18%, 76%, p<0.01; (Carcinogen: N-METHYL-N'-NITRO-N-NITROSOGUANIDINE, 70-25-7, Dose [Inhibitor]: 0.4% IN DIET FOR 26 WK GIVEN POST CARCINOGEN (STUDY DURATION: 52 WK), Route [Inhibitor]: ORAL, Species: RAT, Strain/Sex: WISTAR/MALE, Target Tissue: Type of Lesion: STOMACH: ADENOCARCINOMA, Dose [Carcinogen]: 50 UG/ML DRINKING WATER FOR 25 WK, Promoter: NONE USED) 16/20 (80%), 9/20 (45%), 44%, p<0.05. The “tumour outcome (control, treated, inhibition, significance)” value is, setting by setting: (Carcinogen: TRANS-5-AMINO-3-[2-(5-NITRO-2-FURYL)VINYL]-1,2,4-OXADIAZOLE;SQL8506, 28754-68-9, Carcinogen: TRANS-5-AMINO-3-[2-(5-NITRO-2-FURYL)VINYL]-1,2,4-OXADIAZOLE;SQL8506, 28754-68-9, Dose [Inhibitor]: 210 MG/KG 16 HR BEFORE THE 1ST CARCINOGEN DOSE FOLLOWED BY IP INJECTIONS (210 MG/KG) IMMEDIATELY BEFORE EACH DOSE OF CAR, Route [Inhibitor]: INTRAMUSCULAR/INTRAPERITONEAL, Species: MOUSE, Strain/Sex: CD-1/FEMALE, Target Tissue: Type of Lesion: HEMATOPOIETIC: MYELOID LEUKEMIA, Dose [Carcinogen]: 1 G/KG 2/D FOR 5 D EVERY 4 WK FOR 3 COURSES TREATMENT, Promoter: NONE USED) 7/137 (5%), 0/28 (0%), 100%, not calculated; (Carcinogen: TRANS-5-AMINO-3-[2-(5-NITRO-2-FURYL)VINYL]-1,2,4-OXADIAZOLE;SQL8506, 28754-68-9, Carcinogen: TRANS-5-AMINO-3-[2-(5-NITRO-2-FURYL)VINYL]-1,2,4-OXADIAZOLE;SQL8506, 28754-68-9, Dose [Inhibitor]: 210 MG/KG 16 HR BEFORE THE 1ST CARCINOGEN DOSE FOLLOWED BY IP INJECTIONS (210 MG/KG) IMMEDIATELY BEFORE EACH DOSE OF CAR, Route [Inhibitor]: INTRAMUSCULAR/INTRAPERITONEAL, Species: MOUSE, Strain/Sex: CD-1/FEMALE, Target Tissue: Type of Lesion: LYMPHOID TISSUE: NONTHYMIC LYMPHOMA, Dose [Carcinogen]: 1 G/KG 2/D FOR 5 D EVERY 4 WK FOR 3 COURSES OF TREATMENT, Promoter: NONE USED) 8/137 (6%), 0/28 (0%), 100%, not calculated; (Carcinogen: TRANS-5-AMINO-3-[2-(5-NITRO-2-FURYL)VINYL]-1,2,4-OXADIAZOLE;SQL8506, 28754-68-9, Carcinogen: TRANS-5-AMINO-3-[2-(5-NITRO-2-FURYL)VINYL]-1,2,4-OXADIAZOLE;SQL8506, 28754-68-9, Dose [Inhibitor]: 210 MG/KG 16 HR BEFORE THE 1ST CARCINOGEN DOSE FOLLOWED BY IP INJECTIONS (210 MG/KG) IMMEDIATELY BEFORE EACH DOSE OF CAR, Route [Inhibitor]: INTRAMUSCULAR/INTRAPERITONEAL, Species: MOUSE, Strain/Sex: CD-1/FEMALE, Target Tissue: Type of Lesion: LYMPHOID TISSUE: THYMIC LYMPHOMA, Dose [Carcinogen]: 1 G/KG 2/D FOR 5 D EVERY 4 WK FOR 3 COURSES OF TREATMENT, Promoter: NONE USED) 22/137 (16%), 1/28 (4%), 75%, not calculated; (Carcinogen: TRANS-5-AMINO-3-[2-(5-NITRO-2-FURYL)VINYL]-1,2,4-OXADIAZOLE;SQL8506, 28754-68-9, Carcinogen: TRANS-5-AMINO-3-[2-(5-NITRO-2-FURYL)VINYL]-1,2,4-OXADIAZOLE;SQL8506, 28754-68-9, Dose [Inhibitor]: 210 MG/KG 16 HR BEFORE THE 1ST CARCINOGEN DOSE FOLLOWED BY IP INJECTIONS (210 MG/KG) IMMEDIATELY BEFORE EACH DOSE OF CAR, Route [Inhibitor]: INTRAMUSCULAR/INTRAPERITONEAL, Species: MOUSE, Strain/Sex: CD-1/FEMALE, Target Tissue: Type of Lesion: STOMACH: SQUAMOUS CARCINOMA, Dose [Carcinogen]: 1 G/KG 2/D FOR 5 D EVERY 4 WK FOR 3 COURSES OF TREATMENT, Promoter: NONE USED) 60/137 (44%), 13/28 (46%), -4%, not calculated.
